Results from PubChem BioAssay AID1963848 (Molecular Pharmacology Branch, DTP, NCI, 2024).
“And” between values parts separate entries of the source, which are not always exact repeats. Equal values may be shown once.

Test system: 379773-124-R-J2-PDC spheroid viability
Assay: Anticancer human tumor 379773-124-R-J2-PDC patient-derived endometrial carcinoma cell line growth inhibition [POLQ]
Settings: spheroids with HUVEC and MSC; for viability, T/C: stronger effect = lower value
How it was run: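 Three-cell-type spheroids modelling solid tumor plus stroma served as the readout system; POL inhibitors were tested individually and in combination, concentration ranges set by clinical Cmax where known.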

[1] = curve of first compound, second compound 0.0316 µM
[2] = curve of first compound, second compound 0.1 µM
[3] = curve of first compound, second compound 0.316 µM
[4] = curve of first compound, second compound 1 µM
[5] = curve of first compound, second compound 3.16 µM
[6] = curve of first compound, second compound 10 µM
[7] = second compound 0.0316 µM, first compound 0.0316 µM
[8] = second compound 0.0316 µM, first compound 0.1 µM
[9] = second compound 0.0316 µM, first compound 0.316 µM
[10] = second compound 0.0316 µM, first compound 1 µM
[11] = second compound 0.1 µM, first compound 0.0316 µM
[12] = second compound 0.1 µM, first compound 0.1 µM
[13] = second compound 0.1 µM, first compound 0.316 µM
[14] = second compound 0.1 µM, first compound 1 µM
[15] = second compound 0.316 µM, first compound 0.0316 µM
[16] = second compound 0.316 µM, first compound 0.1 µM
[17] = second compound 0.316 µM, first compound 0.316 µM
[18] = second compound 0.316 µM, first compound 1 µM
[19] = second compound 1 µM, first compound 0.0316 µM
[20] = second compound 1 µM, first compound 0.1 µM
[21] = second compound 1 µM, first compound 0.316 µM
[22] = second compound 1 µM, first compound 1 µM
[23] = second compound 3.16 µM, first compound 0.0316 µM
[24] = second compound 3.16 µM, first compound 0.1 µM
[25] = second compound 3.16 µM, first compound 0.316 µM
[26] = second compound 3.16 µM, first compound 1 µM
[27] = second compound 10 µM, first compound 0.0316 µM
[28] = second compound 10 µM, first compound 0.1 µM
[29] = second compound 10 µM, first compound 0.316 µM
[30] = second compound 10 µM, first compound 1 µM
[31] = second compound 0.0316 µM, first compound 3.16 µM
[32] = second compound 0.0316 µM, first compound 10 µM
[33] = second compound 0.1 µM, first compound 3.16 µM
[34] = second compound 0.1 µM, first compound 10 µM
[35] = second compound 0.316 µM, first compound 3.16 µM
[36] = second compound 0.316 µM, first compound 10 µM
[37] = second compound 1 µM, first compound 3.16 µM
[38] = second compound 1 µM, first compound 10 µM
[39] = second compound 3.16 µM, first compound 3.16 µM
[40] = second compound 3.16 µM, first compound 10 µM
[41] = second compound 10 µM, first compound 3.16 µM
[42] = second compound 10 µM, first compound 10 µM
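Also: spheroids exposed to drugs for seven days before readout.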
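For viability, T/C in this document: percent viability relative to DMSO vehicle control taken as 100%.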

COc1cccc(OCCCN)c1-c1cc(Nc2cnc(C#N)cn2)n[nH]1 + Nc1ccc(C#CCN(C(=O)Cc2ncc(C(F)(F)F)cc2C(F)(F)F)c2ccc(F)cc2)nn1
IC50 [1]: 6.21 nM | IC50 [2]: 6.12 nM | IC50 [3]: 6.36 nM | IC50 [4]: 6.47 nM | IC50 [5]: 6.4 nM | IC50 [6]: 6.36 nM | viability, T/C (second compound 0.0316 µM, first compound 0.00316 µM): 86.5% | viability, T/C (second compound 0.0316 µM, first compound 0.01 µM): 24.3% | viability, T/C [7]: 3.65% | viability, T/C [8]: 2.95% | viability, T/C [9]: 2.97% | viability, T/C [10]: 1.66% | viability, T/C (second compound 0.1 µM, first compound 0.00316 µM): 80.2% | viability, T/C (second compound 0.1 µM, first compound 0.01 µM): 27.6% | viability, T/C [11]: 3.76% | viability, T/C [12]: 2.65% | viability, T/C [13]: 2.25% | viability, T/C [14]: 1.2% | viability, T/C (second compound 0.316 µM, first compound 0.00316 µM): 95.2% | viability, T/C (second compound 0.316 µM, first compound 0.01 µM): 20.7% | viability, T/C [15]: 3.16% | viability, T/C [16]: 2.72% | viability, T/C [17]: 3.55% | viability, T/C [18]: 1.23% | viability, T/C (second compound 1 µM, first compound 0.00316 µM): 98.5% | viability, T/C (second compound 1 µM, first compound 0.01 µM): 20.5% | viability, T/C [19]: 3.32% | viability, T/C [20]: 2.87% | viability, T/C [21]: 4.02% | viability, T/C [22]: 1.67% | viability, T/C (second compound 3.16 µM, first compound 0.00316 µM): 102% | viability, T/C (second compound 3.16 µM, first compound 0.01 µM): 16.9% | viability, T/C [23]: 3.53% | viability, T/C [24]: 1.93% | viability, T/C [25]: 2.04% | viability, T/C [26]: 1.29% | viability, T/C (second compound 10 µM, first compound 0.00316 µM): 93.2% | viability, T/C (second compound 10 µM, first compound 0.01 µM): 22% | viability, T/C [27]: 2.53% | viability, T/C [28]: 2.36% | viability, T/C [29]: 2.24% | viability, T/C [30]: 1.49%

C#Cc1c(F)ccc2cc(O)cc(-c3ncc4c(N5CC6CCC(C5)N6)nc(OCC56CCCN5CC(F)C6)nc4c3F)c12 (stereo unspecified)
viability, T/C (compound 0.0316 µM): 89.7% and 98.6% and 95.6% | viability, T/C (compound 0.1 µM): 75.8% and 86.8% and 84.9% | viability, T/C (compound 0.316 µM): 76.9% and 105% and 79.6% | viability, T/C (compound 1 µM): 82.7% and 98.4% and 90.6% | viability, T/C (compound 3.16 µM): 87.1% and 98.4% and 87.7% | viability, T/C (compound 10 µM): 81.7% and 93% and 90.7% | IC50 (curve of compound): > 10000 nM

Nc1ccn(C2OC(CO)C(O)C2(F)F)c(=O)n1 (stereo unspecified)
viability, T/C (compound 0.0316 µM): 25.4% and 19.1% and 15.5% | viability, T/C (compound 0.1 µM): 8.86% and 11.2% and 9% | viability, T/C (compound 0.316 µM): 8.47% and 12.9% and 7.5% | viability, T/C (compound 1 µM): 10.6% and 10.1% and 9.75% | viability, T/C (compound 3.16 µM): 10.8% and 13.3% and 10.3% | viability, T/C (compound 10 µM): 7.47% and 10.7% and 7.2% | IC50 (curve of compound): < 31.6 nM

C#Cc1c(F)ccc2cc(O)cc(-c3ncc4c(N5CC6CCC(C5)N6)nc(OCC56CCCN5CC(F)C6)nc4c3F)c12 (stereo unspecified) + Nc1ccc(C#CCN(C(=O)Cc2ncc(C(F)(F)F)cc2C(F)(F)F)c2ccc(F)cc2)nn1
IC50 [1]: > 10000 nM | IC50 [2]: > 10000 nM | IC50 [3]: > 10000 nM | IC50 [4]: > 10000 nM | IC50 [5]: > 10000 nM | IC50 [6]: > 10000 nM | viability, T/C [7]: 92.3% | viability, T/C [8]: 91.9% | viability, T/C [9]: 95.5% | viability, T/C [10]: 89.1% | viability, T/C [31]: 95.8% | viability, T/C [32]: 101% | viability, T/C [11]: 92.7% | viability, T/C [12]: 110% | viability, T/C [13]: 88.6% | viability, T/C [14]: 98% | viability, T/C [33]: 103% | viability, T/C [34]: 107% | viability, T/C [15]: 91.3% | viability, T/C [16]: 89.3% | viability, T/C [17]: 92.1% | viability, T/C [18]: 94.3% | viability, T/C [35]: 104% | viability, T/C [36]: 111% | viability, T/C [19]: 84.5% | viability, T/C [20]: 97.6% | viability, T/C [21]: 99.9% | viability, T/C [22]: 86.1% | viability, T/C [37]: 106% | viability, T/C [38]: 103% | viability, T/C [23]: 99.3% | viability, T/C [24]: 88.7% | viability, T/C [25]: 105% | viability, T/C [26]: 103% | viability, T/C [39]: 103% | viability, T/C [40]: 104% | viability, T/C [27]: 88.9% | viability, T/C [28]: 88.6% | viability, T/C [29]: 98.5% | viability, T/C [30]: 85.6% | viability, T/C [41]: 91.3% | viability, T/C [42]: 102%

CC1COCCN1c1cc(C2(O)CC3CCC(C2)O3)c2cnn(-c3ccn[nH]3)c2n1 (stereo unspecified)
viability, T/C (compound 0.0316 µM): 90.7% and 78.4% and 84.5% | viability, T/C (compound 0.1 µM): 43% and 48.6% and 58.8% | viability, T/C (compound 0.316 µM): 11.1% and 12% and 16.6% | viability, T/C (compound 1 µM): 10.4% and 9.93% and 13.2% | viability, T/C (compound 3.16 µM): 8.43% and 7.19% and 10.1% | viability, T/C (compound 10 µM): 2.25% and 2.29% and 3.67% | IC50 (curve of compound): 84.4 nM and 94.4 nM and 127 nM

COc1cc2cc(C(=O)CCC(=O)O)sc2cc1OC
viability, T/C (compound 0.0316 µM): 89.3% and 91.6% (2×) | viability, T/C (compound 0.1 µM): 85.4% and 96.8% and 107% | viability, T/C (compound 0.316 µM): 85.8% and 90.2% and 80.9% | viability, T/C (compound 1 µM): 94.6% and 96.7% and 94% | viability, T/C (compound 3.16 µM): 105% and 95.3% and 92.9% | viability, T/C (compound 10 µM): 91.6% and 79.1% and 73.2% | IC50 (curve of compound): > 10000 nM

CC(C)n1c(=O)n(C)c2cnc3cc(F)c(-c4ccc(OCCCN5CCCCC5)nc4)cc3c21
viability, T/C (compound 0.0316 µM): 77.5% and 102% and 83.2% | viability, T/C (compound 0.1 µM): 79.5% and 84.1% and 87.8% | viability, T/C (compound 0.316 µM): 78.7% and 88.7% and 68% | viability, T/C (compound 1 µM): 76.8% and 87.2% and 74.2% | viability, T/C (compound 3.16 µM): 80% and 93.2% and 82.2% | viability, T/C (compound 10 µM): 53.6% and 72.2% and 62.8% | IC50 (curve of compound): > 10000 nM

CNCc1ccc(-c2[nH]c3cc(F)cc4c3c2CCNC4=O)cc1 + Nc1ccc(C#CCN(C(=O)Cc2ncc(C(F)(F)F)cc2C(F)(F)F)c2ccc(F)cc2)nn1
IC50 [1]: > 10000 nM | IC50 [2]: > 10000 nM | IC50 [3]: > 10000 nM | IC50 [4]: > 10000 nM | IC50 [5]: > 10000 nM | IC50 [6]: > 10000 nM | viability, T/C [7]: 92.7% | viability, T/C [8]: 91.7% | viability, T/C [9]: 91.2% | viability, T/C [10]: 101% | viability, T/C [31]: 99.8% | viability, T/C [32]: 99.7% | viability, T/C [11]: 84.4% | viability, T/C [12]: 90.7% | viability, T/C [13]: 87.5% | viability, T/C [14]: 95.8% | viability, T/C [33]: 101% | viability, T/C [34]: 79.6% | viability, T/C [15]: 101% | viability, T/C [16]: 95.4% | viability, T/C [17]: 85.9% | viability, T/C [18]: 87.1% | viability, T/C [35]: 93.8% | viability, T/C [36]: 93.3% | viability, T/C [19]: 90.4% | viability, T/C [20]: 101% | viability, T/C [21]: 91.2% | viability, T/C [22]: 91.2% | viability, T/C [37]: 92.9% | viability, T/C [38]: 83.4% | viability, T/C [23]: 88.2% | viability, T/C [24]: 86% | viability, T/C [25]: 84.8% | viability, T/C [26]: 86% | viability, T/C [39]: 96.3% | viability, T/C [40]: 79.4% | viability, T/C [27]: 102% | viability, T/C [28]: 88.4% | viability, T/C [29]: 85.3% | viability, T/C [30]: 87.1% | viability, T/C [41]: 96.6% | viability, T/C [42]: 86.4%
